# In patent US12059429B2, “Hornerin: a novel non-VEGF mediated angiogenic protein expressed in both human and mouse angiogenic endothelial cells and human pancreatic cancer cells” (University of Virginia Patent Foundation, priority 2018, dated 2024):
# Experiments:
# Assay type in all cases: in vivo, mouse
# tumor vasculature = assay: Photoacoustic microscopy of tumor vasculature; conditions: day 12
# Excerpt: Using an established PAM system (Wang & Hu, 2012; Ning et al., 2015a; Ning et al., 2015b), the tumor vasculature was characterized in vivo. Two laser wavelengths, 532 and 559 nm, were used to simultaneously quantify microvascular diameter, oxygen saturation, and blood flow at the same spatial scale (Ning et al., 2015a). The applied optical energies were 100 and 75 nJ, which are below the maximum permissible exposure energy. Throughout the experiment, mice were maintained under anesthesia with 1.5% vaporized isoflurane and the body temperature was kept at 37° C. All experimental procedures were carried out in conformity with the laboratory animal protocol approved by the Animal Care and Use Committee at the University of Virginia.
# L3.6pl PDAC cells = assay: Subcutaneous L3.6pl PDAC xenograft tumor volume
# Description: A tumor sample size of four was determined by power analysis based on prior tumor xenograft studies. For our 80% power analysis, the difference between means was 200 mm^3, standard deviation was 100 mm^3, and P-value<0.05 (P<0.05). Tumors were measured at least twice weekly until their volume was >1000 mm^3, at which point animals were euthanized. Tumor size data were collected from each tumor, with the exception of one tumor in the combination treatment experiment that was identified with 90% confidence via Grubb's Outlier Test. The following number of mice in each treatment cohort was evaluated for tumor outgrowth: (Scr siRNA/ctrl., N=15; Hrnr siRNA/ctrl., N=14; Scr siRNA/AV-951, N=8; Hrnr siRNA/AV-951, N=8).
# For tumor implantation, L3.6pl cells were grown under normal culture conditions for 72 hours prior to being trypsinized and enumerated. The cells were suspended in aliquots of 500,000 cells/50 μL Hanks Balanced Salt Solution (HBSS; Corning, Manassas, VA, USA) and 50 μL of Matrigel (BD Biosciences, San Jose, CA, USA) was added to each aliquot of cells prior to implantation. The cell-Matrigel slurry was injected subcutaneously into nu/nu mice on the flanks or orthotopically into the pancreas (Seaman et al., 2011). The injection site for subcutaneous tumors was monitored daily for growth and tumor volume was calculated form caliper measurements using the formula (width^2×length)/2.
# The VEGFR inhibitor AV-951 (Selleck Chemicals, Houston, TX, USA) was suspended in 0.5% methocel+0.5% Tween-20 in HBSS to increase viscosity and 50 μL of 1.0 mg/kg AV-951 or VC solution was administered once daily by oral gavage (22-gauge gavage needle (Kent Scientific, Torrington, CT, USA) connected to a 1 mL syringe). […] To prepare Hrnr siRNA and Silencer Select Negative Control #1 Scr siRNA (Invitrogen; catalog number 4390844) for injection, 10 μg of hornerin or control siRNA were combined with in vivo-jetPEI transfection reagent (Polyplus, France) in solution with 5% glucose per Polyplus instructions (total volume 50 μL). After a 30 minutes incubation, the siRNA solutions were injected slowly into the center of the tumor. A second independent hornerin knockdown experiment was conducted using a pooled set of three unique mouse Hrnr siRNA duplexes (5′-[…]-3′ (SEQ ID NO: 50); 5 ‘-[…]-3’ (SEQ ID NO: 51); 5 ‘-[…]-3’ (SEQ ID NO: 52)) and Scr siRNA (Origene, Rockville, MD, USA). The reagent preparation and injection protocol were similar to that described above.
# tumor vascularity = assay: DCE-MRI and Ktrans measurement of L3.6pl tumors
# Description: To assess the in vivo function of tumor vascularity, DCE-MRI was performed on a 7.0 T Clinscan small animal imaging system (Bruker, Ettlingen, Germany) using a 30 mm inner-diameter birdcage radiofrequency coil. Mice (N=7) were imaged prior to treating tumors with Hrnr and Scr siRNA and again 6 days after treatment. Mice treated with the VEGFR inhibitor AV-951 (N=5) were image pre-siRNA treatment and 6 days posttreatment. Mice were anesthetized with 1.25% isoflurane anesthesia, which was maintained during imaging. Respiration and ECG were monitored during imaging using an MRI-compatible system (SA Instruments, Stony Brook, NY, USA). An indwelling tail vein catheter was established for administration of the gadolinium contrast agent Gd-DTPA, which is required in DCE imaging. Mice were placed supine in the imaging system, and body temperature was maintained at 36° C.±1° C. using circulating, temperature controlled water. Tumors were localized using a spin-echo imaging sequence, and an imaging plane that transected both tumors was chosen for DCE imaging.
# A dual-Gd-bolus DCE-MRI acquisition strategy (Christian et al., 2004) was employed, which uses a low dose of contrast agent to accurately acquire the undistorted Gd concentration vs. time curve in the blood pool and a higher dose of contrast agent to acquire the Gd concentration vs. time curve in the tumor with high signal-to-noise ratio, since Gd-DTPA is known to have signal saturation effects at high doses in the blood pool (Christian et al., 2004). […]
substance,measurement,setting,value
5′-GCAUGGAUCUUGUUGCGGUTT-3′ [Hrnr siRNA],tumor blood hemoglobin levels,tumor vasculature,remained unchanged
same,tumor blood oxygen saturation compared to control,tumor vasculature,1.7 fold
same,tumors smaller compared to Scr siRNA-injected tumors,"L3.6pl PDAC cells; intratumoral injection every other day from day 7, volume at day 13 post implantation",2.5 fold
same,reduction in tumor volume (discussion summary),L3.6pl PDAC cells; monotherapy or combined therapies,two-fold
same,tumor concentration of Gd-DTPA,"tumor vascularity; after 6 days of siRNA injection every other day, vs Scr siRNA",two-fold reduced
same,reduction in Ktrans,"tumor vascularity; after 6 days of siRNA injections, vs control",2.4 fold
